In brackets after ≈: the same amount, converted by molar mass. *1 amine or outer side, *2 acyl side, *3 side chain or, on linkers, in order; H or OH if unused. Where a SMILES comes first, the peptide text is derived from it. Bridges are numbered along the chain shown (N, C = ends). [ ]: non-standard residue; d: D form. X1 = CC(C)CCCCCCCCC[C@H](CC(=O)[*:1])O[*:2]
Legend:
[1] = tested on: Pseudomonas aeruginosa MTCC 2453; assay: Microtiter broth dilution MIC; type: cell-based; conditions: Pseudomonas aeruginosa MTCC 2453, 24 h, 35° C.
Protocol: (§1) The antimicrobial activity of Microsan and M-EPS-Au-NP was determined using the microtiter broth dilution method [Kumar, C. G. and Mamidyala, S. K. (2011) Coll. Surf B: Biointerf. 84, 462-466]. Different bacterial pathogens (10^7 cfu ml^−1 cells) were inoculated in 100 μl of Muller-Hinton broth. Different concentrations of Microsan, M-EPS-Au-NP and Brevisan were added to each strain and incubated for 24 h at 35° C. After incubation, 40 μl of p-iodonitrotetrazolium (INT, Sigma) dye (0.02%, 20 mg INT dissolved in 100 ml of 40% dimethyl formamide was added to each well and incubated for 2 h. The reduction of p-iodonitrotetrazolium was spectroscopically measured at 450 nm using TRIAD multimode reader (Dynex Technologies, Inc., Chantilly, Va.) to determine the minimum inhibitory concentration (MIC) values. Commercially available surfactin (CAS 24730-31-2; Sigma-Aldrich) and laminarin (CAS No 9008-22-4; Sigma-Aldrich) used as positive controls were run in parallel for comparison. The MIC values of Microsan and M-EPS-Au-NP observed against the tested bacterial strains are shown in Table 3.

[2] = tested on: Bacillus subtilis MTCC 121; assay: Microtiter broth dilution MIC; type: cell-based; conditions: Bacillus subtilis MTCC 121, 24 h, 35° C.
Protocol: as §1

[3] = tested on: Staphylococcus aureus MTCC 96; assay: Microtiter broth dilution MIC; type: cell-based; conditions: Staphylococcus aureus MTCC 96, 24 h, 35° C.
Protocol: as §1

[4] = tested on: Escherichia coli MTCC 739; assay: Microtiter broth dilution MIC; type: cell-based; conditions: Escherichia coli MTCC 739, 24 h, 35° C.
Protocol: as §1

[5] = tested on: Staphylococcus aureus MLS16 MTCC 2940; assay: Microtiter broth dilution MIC; type: cell-based; conditions: Staphylococcus aureus MLS16 MTCC 2940, 24 h, 35° C.
Protocol: as §1

[6] = tested on: Klebsiella planticola MTCC 530; assay: Microtiter broth dilution MIC; type: cell-based; conditions: Klebsiella planticola MTCC 530, 24 h, 35° C.
Protocol: as §1

[7] = tested on: Micrococcus luteus MTCC 2470; assay: Microtiter broth dilution MIC; type: cell-based; conditions: Micrococcus luteus MTCC 2470, 24 h, 35° C.
Protocol: as §1

[8] = DPPH free radical scavenging assay (cell free); type: biochemical; conditions: 35° C., 30 min
Protocol: (§2) The antioxidant activity of Microsan from Microbacterium sp. strain BS-2 and Brevisan from Brevibacillus sp. strain BS-207 in cell free system was measured by its inhibitory activity on the generation of DPPH free radicals, superoxide anions (O^2−), lipid peroxidation and erythrocyte hemolysis. The DPPH free radical scavenging assay was performed using 2,2-diphenyl-1-picrylhydrazyl (DPPH) free radical scavenging method [Ara. N. and Hasan, N. (2009) Res. J. Med. Medical Sci. 4, 107-110]. Different concentrations of Microsan and Brevisan were mixed individually with 150 μl of 160 μM methanolic solution of DPPH and incubated at 35° C. for 30 min in dark. The effective concentration (EC50) was calculated by measuring the absorbance of the samples at 517 nm. The superoxide anion scavenging was measured using phenazine methosulfate-nicotinamide adenine dinucleotide (PMS/NADH) method as previously described [Liu, F., Ooi, V. E. and Chang, S. T. (1997) Life Sci. 60, 763-771]. The lipid peroxidation assay was performed using the previously described method [Zhang, Q., Yu, P., Li, Z., Zhang, H., Xu, Z. and Li, P. (2003) J. Appl. Phycol. 15, 305-310] which is based on measuring the lipid peroxide decomposed product malondialdehyde (MDA). […] Samples were incubated at 37° C. for 30 min and the absorbance was measured at 540 nm. […]

[9] = Lipid peroxidation assay (malondialdehyde); type: biochemical; conditions: cell free
Protocol: as §2

erythrocytes = assay: Erythrocyte hemolysis assay (H2O2); type: cell-based; conditions: Erythrocyte, 0.5 h; human erythrocytes, H2O2, 37° C., 30 min; read-out: EC50 erythrocyte hemolysis inhibition
Protocol: as §2

[10] = Superoxide anion scavenging (PMS/NADH method); type: biochemical; conditions: cell free
Protocol: as §2

For `CC(C)CCCCCCCCC[C@@H]1CC(=O)N[C@@H](CCC(=O)O)C(=O)N[C@@H](CC(C)C)C(=O)N[C@H](CC(C)C)C(=O)N[C@@H](C(C)C)C(=O)N[C@@H](CC(=O)O)C(=O)N[C@H](CC(C)C)C(=O)N[C@@H](CC(C)C)C(=O)O1` [Surfactin] (EL[dL]VD[dL]L; linker N-C via X1), the MIC ([1]; MTCC2453, read-out: Minimum inhibitory concentration (MIC)) was 18.8 mg/L (≈ 18.1 µM), the MIC ([2]; MTCC121, read-out: Minimum inhibitory concentration (MIC)) was 4.68 mg/L (≈ 4.52 µM) and the MIC ([3]; MTCC96, read-out: Minimum inhibitory concentration (MIC)) was 9.37 mg/L (≈ 9.04 µM). The MIC ([4]; MTCC739, read-out: Minimum inhibitory concentration (MIC)) was 9.37 mg/L (≈ 9.04 µM), the MIC ([5]; MTCC2940, read-out: Minimum inhibitory concentration (MIC)) was 18.8 mg/L (≈ 18.1 µM) and the MIC ([6]; MTCC530, read-out: Minimum inhibitory concentration (MIC)) was 9.37 mg/L (≈ 9.04 µM). The MIC ([7]; MTCC2470, read-out: Minimum inhibitory concentration (MIC)) was 18.8 mg/L (≈ 18.1 µM).
With `O=C1O[C@H]([C@@H](O)CO)C(O)=C1O` [ascorbic acid, reference compound] the “EC50 DPPH free radical scavenging” value [8] was 40.28 mg/L (≈ 229 µM), the “EC50 lipid peroxidation inhibition” value [9] was 130.97 mg/L (≈ 744 µM) and the EC50 (erythrocytes) was 120 mg/L (≈ 680 µM). The “EC50 superoxide anions (O^2−) scavenging” value [10] was 21.1 mg/L (≈ 120 µM).
With Laminarin the “Minimum inhibitory concentration (MIC)” value [1] was 4.68 mg/L, the “Minimum inhibitory concentration (MIC)” value [2] was 9.37 mg/L and the “Minimum inhibitory concentration (MIC)” value [3] was 18.75 mg/L. The “Minimum inhibitory concentration (MIC)” value [4] was 18.75 mg/L, the “Minimum inhibitory concentration (MIC)” value [5] was 37.5 mg/L and the “Minimum inhibitory concentration (MIC)” value [6] was 4.68 mg/L. For the same molecule, the “Minimum inhibitory concentration (MIC)” value [7] was 4.68 mg/L.
